The values that follow come from ChEMBL document CHEMBL1201862, “PubChem BioAssay data set” (2004).

SMILES strings stand for the structures.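 Five compound concentrations were applied to cells in 96-well plates for 48 hours; endpoints were derived by simple linear interpolation of the resulting dose-response curve. GI50 is the concentration that inhibits growth by half.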 Calls of active or inactive are those of the source. Cut-off read from the data, not from the text of the source: active = GI50 up to about 1.1 µM and inactive = higher.

What all share (assay): DTP human tumour cell line panel, 48 h
In assay [1] the test system is HCT-116.
Assay [2] deals with M14.
The test system of assay [3] is HL-60.
Assay [4] concerns NCI/ADR-RES.
For assay [5], the system named is OVCAR-4.
Assay [6] relates to IGROV-1.
The subject of assay [7] is LOX IMVI.
Assay [8] relates to HT-29.
Assay [9] deals with U-251.
Assay [10] concerns OVCAR-5.
The subject of assay [11] is SF-539.
Assay [12] relates to SF-268.
Assay [13] deals with HOP-92.
For assay [14], the system named is SN12C.
For assay [15], the system named is UACC-62.
Assay [16] relates to SNB-75.
Assay [17] has as its system OVCAR-3.
Assay [18] concerns A498.
Assay [19] concerns RXF 393.

As to `CC(C)(C)CNC(=O)NCn1cc(-c2ccccc2)nn1`, the GI50 in [1] is > 100 µM (inactive); in assay [2] it was > 100 µM (inactive); in [3], > 100 µM (inactive); in assay [4] it was > 100 µM (inactive); in assay [5], > 10 µM (inactive); in assay [6], > 100 µM (inactive). In addition, the GI50 in assay [7], in assay [8], in [9], in [10], in assay [11] and in [12] was > 100 µM (inactive) each time. In addition, the GI50 in assay [13] and in assay [14] was > 100 µM (inactive) in each case.

As for `COc1ccc(CNc2nc3cc(C(F)(F)F)ccc3nc2C(=O)O)cc1OC`, the GI50 in assay [15] is 20.5 µM (inactive); in assay [1], 29 µM (inactive); in [2], 32 µM (inactive); in [16], 47.9 µM (inactive); in assay [17], 22.3 µM (inactive); in [4] it was 34 µM (inactive). The GI50 in assay [18] is 27.5 µM (inactive); in assay [5], 48.2 µM (inactive); in assay [6], 12.2 µM (inactive); in [7], 33.7 µM (inactive); in assay [8], 35.6 µM (inactive); in assay [9], 24.3 µM (inactive). Also, the GI50 is 46 µM (inactive) in [10], 32.5 µM (inactive) in assay [11], 27.2 µM (inactive) in [13] and 26.8 µM (inactive) in [14].

Consider `CC(C)=CC(C)C(C(O)CCC1(c2ccoc2)OCCO1)S(=O)(=O)c1ccccc1` (centres undefined), for which the GI50 was > 100 µM (inactive) in [1]; > 100 µM (inactive) in assay [2]; > 100 µM (inactive) in assay [16]; > 100 µM (inactive) in assay [17]; 91.6 µM (inactive) in assay [4]; > 100 µM (inactive) in assay [19]. In addition, the GI50 is > 100 µM (inactive) in [18]; > 100 µM (inactive) in assay [5]; 54.5 µM (inactive) in assay [6]; > 100 µM (inactive) in assay [7]; > 100 µM (inactive) in assay [9]; > 100 µM (inactive) in assay [10]. Also, the GI50 in [11], in [12] and in assay [14] was > 100 µM (inactive) in each case.

In the case of `CN(C)CCCNC(=O)c1c(-c2cccnc2)cnc2ccccc12`, the GI50 in assay [15] is > 100 µM (inactive); in assay [1], > 100 µM (inactive); in [2], > 100 µM (inactive); in assay [3] it was > 100 µM (inactive); in [16], 14.9 µM (inactive); in assay [17], > 100 µM (inactive). Further, the GI50 in assay [4], in [19], in [5], in [6], in assay [8] and in assay [9] was > 100 µM (inactive) each time. Further, the GI50 in [10], in assay [11], in [12], in [13] and in assay [14] was > 100 µM (inactive) in each case.

In the case of `CC(C)(CO)NC(=O)c1cccc(C(=O)NC(C)(C)CO)c1Br`, the GI50 in assay [15] is > 100 µM (inactive); in assay [1], > 100 µM (inactive); in assay [2], > 100 µM (inactive); in assay [3], > 100 µM (inactive); in assay [16], 32.3 µM (inactive); in assay [4] it was > 100 µM (inactive). For the same compound, the GI50 was 7.83 µM (inactive) in [19]; > 100 µM (inactive) in assay [5]; > 100 µM (inactive) in assay [6]; > 100 µM (inactive) in assay [7]; > 100 µM (inactive) in assay [8]; > 100 µM (inactive) in assay [9]. For the same compound, the GI50 in [10], in [11], in assay [12] and in [13] was > 100 µM (inactive) throughout.

For `O=C1CSC(/C=C/c2ccccc2)N1c1ccc(-c2ccc(-n3c(-c4ccccc4)nc4ccccc4c3=O)cc2)cc1` (centres undefined), the GI50 in [15] was 24.3 µM (inactive); in [2], 16.9 µM (inactive); in assay [3], 28.8 µM (inactive); in assay [16], 0.562 µM (active); in [17], 21.2 µM (inactive); in assay [4], 21.1 µM (inactive). In addition, the GI50 is 42.2 µM (inactive) in assay [18]; 15.8 µM (inactive) in [5]; 20.1 µM (inactive) in assay [6]; 15.8 µM (inactive) in assay [7]; 14.5 µM (inactive) in assay [8]; 21.5 µM (inactive) in [9]. Also, the GI50 in [10] is 6.04 µM (inactive); in [12] it was 35.6 µM (inactive); in [13], 18 µM (inactive); in [14] it was 27.4 µM (inactive).

In the case of `Cc1cc2c(cc1Cl)SC(NNC1=NCCN1)=NS2(=O)=O`, the GI50 in assay [15], in assay [1], in assay [2], in [3], in assay [16] and in assay [17] was > 10 µM (inactive) each time. The GI50 in assay [4], in assay [19], in assay [18], in assay [5], in [6] and in assay [7] was > 10 µM (inactive) throughout. Also, the GI50 in assay [8], in assay [9], in assay [10], in assay [11], in assay [12] and in [14] was > 10 µM (inactive) in each case.

For `O=[N+]([O-])C1(C2([N+](=O)[O-])CCCC2)CCCC1`, the GI50 was > 100 µM (inactive) in [15]; > 100 µM (inactive) in assay [1]; > 100 µM (inactive) in assay [2]; > 100 µM (inactive) in [3]; 61 µM (inactive) in [16]; > 100 µM (inactive) in assay [17]. Further, the GI50 in assay [4], in assay [19], in assay [18], in assay [5], in assay [6] and in assay [7] was > 100 µM (inactive) throughout. The GI50 in assay [8], in [9], in assay [10], in assay [11], in assay [12] and in assay [14] was > 100 µM (inactive) throughout.

As for `COC(C/C(=C/CO[Si](C(C)C)(C(C)C)C(C)C)C(=O)N(C(=O)OC(C)(C)C)c1ccccc1I)OC`, the GI50 in [15] was > 100 µM (inactive); in assay [1] it was 11.8 µM (inactive); in assay [2], 47.2 µM (inactive); in [16], > 100 µM (inactive); in assay [17], 29.2 µM (inactive); in assay [4], > 100 µM (inactive). Moreover, the GI50 in assay [18] is > 100 µM (inactive); in assay [5] it was 44.6 µM (inactive); in assay [6], 0.0262 µM (active); in assay [7], 18.2 µM (inactive); in assay [8], > 100 µM (inactive); in [9], 37.6 µM (inactive). The GI50 is 36.1 µM (inactive) in assay [10], > 100 µM (inactive) in [12], 2.16 µM (inactive) in [13] and 52 µM (inactive) in [14].

Consider `CC(=O)OC1=NN=C2COC(c3ccccc3OC(C)=O)=NN2C1`, for which the GI50 in assay [15] was 28.1 µM (inactive); in [1], > 50 µM (inactive); in [2], 16.7 µM (inactive); in assay [3], > 50 µM (inactive); in assay [16], 15.8 µM (inactive); in assay [17], > 50 µM (inactive). Further, the GI50 in [4] is > 50 µM (inactive); in assay [19], > 50 µM (inactive); in [5] it was > 50 µM (inactive); in assay [6], > 50 µM (inactive); in assay [7] it was 24.1 µM (inactive); in [8], 39 µM (inactive). The GI50 in assay [9] is > 50 µM (inactive); in assay [10], > 50 µM (inactive); in assay [11], > 50 µM (inactive); in assay [12], 34.8 µM (inactive); in assay [13], > 50 µM (inactive); in assay [14], > 50 µM (inactive).

Regarding `N=c1oc2ccccc2cc1-c1nc2ccccc2[nH]1`, the GI50 is 41.4 µM (inactive) in [15]; 49.1 µM (inactive) in [1]; 70.8 µM (inactive) in assay [2]; 7.05 µM (inactive) in assay [3]; 41.1 µM (inactive) in [16]; 22.3 µM (inactive) in [4]. Moreover, the GI50 in assay [19] is 38.9 µM (inactive); in assay [5], > 100 µM (inactive); in [6], 18.9 µM (inactive); in [7], 32.5 µM (inactive); in assay [8] it was 36 µM (inactive); in [9], 61.7 µM (inactive). Besides, the GI50 in [10] was > 100 µM (inactive); in assay [11] it was 44.3 µM (inactive); in assay [12] it was 64.9 µM (inactive); in assay [13], 2.23 µM (inactive); in assay [14] it was > 100 µM (inactive).

As to `O=C1CC(c2ccccc2)C2(C(=O)NC(=S)NC2=O)C(c2ccccc2)C1` (centres undefined), the GI50 is > 75 µM (inactive) in assay [15]; > 75 µM (inactive) in [1]; > 75 µM (inactive) in assay [2]; 41.3 µM (inactive) in assay [3]; > 75 µM (inactive) in assay [16]; > 75 µM (inactive) in [17]. Moreover, the GI50 in assay [4], in assay [19], in [5], in assay [6], in assay [7] and in assay [8] was > 75 µM (inactive) throughout. Moreover, the GI50 was > 75 µM (inactive) in [9]; > 75 µM (inactive) in assay [10]; > 75 µM (inactive) in [11]; > 75 µM (inactive) in assay [12]; 13.3 µM (inactive) in [13]; > 75 µM (inactive) in [14].
